Assay results reported in the NIST ThermoML archive (doi:10.1021/je060271a).
Values joined by “and” are separate entries in the source; they are usually repeats but may differ in a detail not shown here. Equal values may be shown once. ± gives the expanded uncertainty stated by the source.

Settings: 283.14 K, Liquid, Vibrating tube method

CCCCCCC(=O)OCC(COC(=O)CCCCCC)(COC(=O)CCCCCC)COC(=O)CCCCCC [pentaerythritol tetraheptanoate]
Settings	mass density
4385.6 kPa	988.4 ± 1.2 kg/m3
4385.7 kPa	988.4 ± 1.2 kg/m3 and 988.5 ± 1.2 kg/m3
4385.8 kPa	988.4 ± 1.2 kg/m3
4385.9 kPa	988.3 ± 1.2 kg/m3 and 988.4 ± 1.2 kg/m3 and 988.5 ± 1.2 kg/m3
4386 kPa	988.4 ± 1.2 kg/m3 and 988.3 ± 1.2 kg/m3
4386.1 kPa	988.5 ± 1.2 kg/m3 and 988.4 ± 1.2 kg/m3 and 988.3 ± 1.2 kg/m3
4386.2 kPa	988.4 ± 1.2 kg/m3
4386.5 kPa	988.5 ± 1.2 kg/m3
4386.7 kPa	988.4 ± 1.2 kg/m3
4387 kPa	988.3 ± 1.2 kg/m3 and 988.4 ± 1.2 kg/m3
4387.4 kPa	988.4 ± 1.2 kg/m3
4388.1 kPa	988.3 ± 1.2 kg/m3
4388.6 kPa	988.5 ± 1.2 kg/m3
4392.2 kPa	988.4 ± 1.2 kg/m3
4392.3 kPa	988.5 ± 1.2 kg/m3
4393.3 kPa	988.3 ± 1.2 kg/m3
4394 kPa	988.5 ± 1.2 kg/m3
4394.1 kPa	988.5 ± 1.2 kg/m3
4394.5 kPa	988.4 ± 1.2 kg/m3
4394.7 kPa	988.4 ± 1.2 kg/m3
4395.2 kPa	988.5 ± 1.2 kg/m3 and 988.4 ± 1.2 kg/m3
4395.7 kPa	988.4 ± 1.2 kg/m3
4396 kPa	988.4 ± 1.2 kg/m3
4396.2 kPa	988.5 ± 1.2 kg/m3
4396.6 kPa	988.4 ± 1.2 kg/m3
4401.3 kPa	988.5 ± 1.2 kg/m3
4404.8 kPa	988.5 ± 1.2 kg/m3
4409.8 kPa	988.5 ± 1.2 kg/m3
4413.5 kPa	988.4 ± 1.2 kg/m3
4417.1 kPa	988.4 ± 1.2 kg/m3
4421.1 kPa	988.4 ± 1.2 kg/m3
4425.8 kPa	988.5 ± 1.2 kg/m3
4429.6 kPa	988.5 ± 1.2 kg/m3
4433.4 kPa	988.4 ± 1.2 kg/m3
4437.9 kPa	988.4 ± 1.2 kg/m3
4441.9 kPa	988.6 ± 1.2 kg/m3
4445.5 kPa	988.5 ± 1.2 kg/m3
4450.3 kPa	988.4 ± 1.2 kg/m3
4452.1 kPa	988.5 ± 1.2 kg/m3
4456.8 kPa	988.4 ± 1.2 kg/m3
4460.9 kPa	988.4 ± 1.2 kg/m3
4464.4 kPa	988.4 ± 1.2 kg/m3
4469.4 kPa	988.4 ± 1.2 kg/m3
4473.1 kPa	988.5 ± 1.2 kg/m3
4476.9 kPa	988.5 ± 1.2 kg/m3
4480.5 kPa	988.4 ± 1.2 kg/m3
4485.5 kPa	988.4 ± 1.2 kg/m3
4489.5 kPa	988.4 ± 1.2 kg/m3
4493.3 kPa	988.5 ± 1.2 kg/m3
4498.2 kPa	988.4 ± 1.2 kg/m3
4502.1 kPa	988.4 ± 1.2 kg/m3
4505.9 kPa	988.5 ± 1.2 kg/m3
4509.9 kPa	988.5 ± 1.2 kg/m3
4513.7 kPa	988.6 ± 1.2 kg/m3
4518.2 kPa	988.4 ± 1.2 kg/m3
4521.7 kPa	988.5 ± 1.2 kg/m3
4525.7 kPa	988.5 ± 1.2 kg/m3
4529.3 kPa	988.5 ± 1.2 kg/m3
4533.1 kPa	988.5 ± 1.2 kg/m3
4539.2 kPa	988.5 ± 1.2 kg/m3
4548.9 kPa	988.4 ± 1.2 kg/m3
4556.8 kPa	988.5 ± 1.2 kg/m3
4564.8 kPa	988.5 ± 1.2 kg/m3
4572.9 kPa	988.5 ± 1.2 kg/m3
4583.2 kPa	988.6 ± 1.2 kg/m3
4591.3 kPa	988.5 ± 1.2 kg/m3
4599.9 kPa	988.5 ± 1.2 kg/m3
4607.7 kPa	988.6 ± 1.2 kg/m3
4617.4 kPa	988.5 ± 1.2 kg/m3
4625.9 kPa	988.5 ± 1.2 kg/m3
4635.9 kPa	988.4 ± 1.2 kg/m3
4644.3 kPa	988.5 ± 1.2 kg/m3
4652.7 kPa	988.5 ± 1.2 kg/m3
4663.3 kPa	988.5 ± 1.2 kg/m3
4671.8 kPa	988.5 ± 1.2 kg/m3
4680.4 kPa	988.5 ± 1.2 kg/m3
4689.1 kPa	988.6 ± 1.2 kg/m3
4697.7 kPa	988.5 ± 1.2 kg/m3
4708.3 kPa	988.6 ± 1.2 kg/m3
4717 kPa	988.6 ± 1.2 kg/m3
4726.5 kPa	988.6 ± 1.2 kg/m3
4737 kPa	988.7 ± 1.2 kg/m3
4746.4 kPa	988.9 ± 1.2 kg/m3
4755 kPa	988.6 ± 1.2 kg/m3
4774.4 kPa	988.7 ± 1.2 kg/m3
4781.5 kPa	988.6 ± 1.2 kg/m3
4786.9 kPa	988.6 ± 1.2 kg/m3
4792.4 kPa	988.5 ± 1.2 kg/m3
4799.3 kPa	988.6 ± 1.2 kg/m3
4804.7 kPa	988.7 ± 1.2 kg/m3
4810.6 kPa	988.6 ± 1.2 kg/m3
4816.1 kPa	988.7 ± 1.2 kg/m3
4823 kPa	988.6 ± 1.2 kg/m3
4828.9 kPa	988.7 ± 1.2 kg/m3
4834.3 kPa	988.7 ± 1.2 kg/m3
4841.2 kPa	988.6 ± 1.2 kg/m3
4847.3 kPa	988.7 ± 1.2 kg/m3
4853.2 kPa	988.7 ± 1.2 kg/m3
4858.7 kPa	988.6 ± 1.2 kg/m3
4865.8 kPa	988.6 ± 1.2 kg/m3
4871.7 kPa	988.8 ± 1.2 kg/m3
4877.4 kPa	988.7 ± 1.2 kg/m3
4884.1 kPa	988.6 ± 1.2 kg/m3
4890 kPa	988.7 ± 1.2 kg/m3
4895.9 kPa	988.8 ± 1.2 kg/m3
4902.8 kPa	988.7 ± 1.2 kg/m3
4908.7 kPa	988.8 ± 1.2 kg/m3
4914.6 kPa	988.7 ± 1.2 kg/m3
4920.6 kPa	988.8 ± 1.2 kg/m3
4927.9 kPa	988.7 ± 1.2 kg/m3
4934 kPa	988.7 ± 1.2 kg/m3
4940 kPa	988.7 ± 1.2 kg/m3
